Data from patent US20170151264A1, “COMBINATION” (Almirall, S.A., priority 2014, published 2017).

How the values were obtained:
[1] = test system: Concanavalin A induced plasma interleukin-2 (IL-2) release; assay: Concanavalin A induced plasma IL-2 release in rats; type: in vivo, Wistar rats; details: for reduction in IL2 production versus vehicle-treated con A-induced rats: LAS191954 0.1 mg/kg and/or dexamethasone 0.03 mg/kg, 1 h before con A, IL2 at 90 min; for plasma levels alone versus in combination: LAS191954 0.1 mg/kg, dexamethasone 0.03 mg/kg, rat
[2] = test system: neutrophils, eosinophils and lymphocytes in bronchoalveolar fluid (BALF); assay: House dust mite induced asthma model; type: in vivo, Mouse
neutrophils in BALF = assay: Cigarette smoke model; type: in vivo, Mouse; details: LAS191954 1 mg/kg and/or dexamethasone 0.3 mg/kg
PI3Kδ [3] = biological target: T1, PI3Kδ (Homo sapiens, UniProt O00329); assay: M-CSF-induced AKT phosphorylation in THP-1 cells; type: cell-based; details: THP-1, M-CSF stimulus, phosphorylated AKT
Target sequence in this assay (O00329 whole entry): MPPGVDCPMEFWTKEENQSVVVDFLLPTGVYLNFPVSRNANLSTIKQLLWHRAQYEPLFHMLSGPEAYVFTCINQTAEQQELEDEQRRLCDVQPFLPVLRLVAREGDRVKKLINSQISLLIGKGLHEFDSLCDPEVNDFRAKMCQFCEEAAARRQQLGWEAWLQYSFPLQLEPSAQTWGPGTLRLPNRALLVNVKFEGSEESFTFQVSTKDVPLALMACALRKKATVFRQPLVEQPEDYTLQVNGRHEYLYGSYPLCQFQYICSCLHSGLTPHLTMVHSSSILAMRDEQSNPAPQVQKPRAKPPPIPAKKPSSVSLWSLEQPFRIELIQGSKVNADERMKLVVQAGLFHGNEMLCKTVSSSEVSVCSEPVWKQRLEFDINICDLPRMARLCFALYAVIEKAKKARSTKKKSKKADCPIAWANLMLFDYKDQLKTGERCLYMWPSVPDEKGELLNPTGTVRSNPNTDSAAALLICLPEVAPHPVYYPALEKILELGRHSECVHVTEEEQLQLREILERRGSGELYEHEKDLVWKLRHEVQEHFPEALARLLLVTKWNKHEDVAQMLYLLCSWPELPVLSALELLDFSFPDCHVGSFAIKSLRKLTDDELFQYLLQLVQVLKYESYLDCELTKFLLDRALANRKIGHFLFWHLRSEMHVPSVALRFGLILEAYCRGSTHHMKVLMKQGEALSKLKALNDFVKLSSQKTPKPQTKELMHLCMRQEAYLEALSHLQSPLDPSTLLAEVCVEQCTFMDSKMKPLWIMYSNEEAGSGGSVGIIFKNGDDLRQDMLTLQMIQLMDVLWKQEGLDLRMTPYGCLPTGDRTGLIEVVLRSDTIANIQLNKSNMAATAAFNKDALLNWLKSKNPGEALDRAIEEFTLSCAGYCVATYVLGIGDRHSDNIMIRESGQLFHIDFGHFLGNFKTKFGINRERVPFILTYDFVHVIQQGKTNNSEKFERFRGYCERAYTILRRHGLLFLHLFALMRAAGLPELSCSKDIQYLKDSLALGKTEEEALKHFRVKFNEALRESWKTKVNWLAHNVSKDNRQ
Target sequence in this assay (P27986 whole entry partner): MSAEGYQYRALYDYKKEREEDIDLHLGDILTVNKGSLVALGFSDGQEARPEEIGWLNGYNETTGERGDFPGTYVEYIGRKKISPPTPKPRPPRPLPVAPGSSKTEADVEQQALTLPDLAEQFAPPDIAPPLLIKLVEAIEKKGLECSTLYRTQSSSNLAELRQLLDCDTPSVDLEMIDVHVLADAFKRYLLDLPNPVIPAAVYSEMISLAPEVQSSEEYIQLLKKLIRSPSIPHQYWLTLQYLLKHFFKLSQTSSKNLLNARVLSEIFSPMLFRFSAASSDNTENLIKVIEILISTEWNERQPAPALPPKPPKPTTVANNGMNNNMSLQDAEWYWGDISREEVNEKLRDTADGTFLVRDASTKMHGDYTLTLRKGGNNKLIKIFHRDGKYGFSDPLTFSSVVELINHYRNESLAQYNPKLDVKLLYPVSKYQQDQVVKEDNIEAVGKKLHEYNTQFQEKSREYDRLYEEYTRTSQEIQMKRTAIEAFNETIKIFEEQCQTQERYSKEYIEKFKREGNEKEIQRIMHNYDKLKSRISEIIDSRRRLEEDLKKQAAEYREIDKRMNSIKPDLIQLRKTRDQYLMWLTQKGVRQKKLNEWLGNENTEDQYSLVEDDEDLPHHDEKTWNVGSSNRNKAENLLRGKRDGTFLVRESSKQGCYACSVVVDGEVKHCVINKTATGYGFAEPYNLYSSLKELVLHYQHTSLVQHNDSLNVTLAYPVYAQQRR

PI3Kδ [4] = biological target: T1, PI3Kδ; assay: BCR crosslinking-induced CD69 expression in CD19+ B cells, isolated PBMC; type: cell-based; details: Anti-IgD, CD69 surface expression
Target sequence in this assay (O00329 whole entry): as the sequence (O00329 whole entry) above
Target sequence in this assay (P27986 whole entry partner): as the sequence (P27986 whole entry partner) above

PI3Kδ [5] = biological target: T1, PI3Kδ; assay: BCR crosslinking-induced B cell CD69 expression, human whole blood; type: cell-based; details: CD19+ cells (human whole blood), B cell CD69 surface expression
Target sequence in this assay (O00329 whole entry): as the sequence (O00329 whole entry) above
Target sequence in this assay (P27986 whole entry partner): as the sequence (P27986 whole entry partner) above

PI3Kδ [6] = biological target: T1, PI3Kδ; assay: Immune complex-induced ROS release in human neutrophils; type: cell-based; details: immune complexes
Target sequence in this assay (O00329 whole entry): as the sequence (O00329 whole entry) above
Target sequence in this assay (P27986 2-724 partner limits assumed): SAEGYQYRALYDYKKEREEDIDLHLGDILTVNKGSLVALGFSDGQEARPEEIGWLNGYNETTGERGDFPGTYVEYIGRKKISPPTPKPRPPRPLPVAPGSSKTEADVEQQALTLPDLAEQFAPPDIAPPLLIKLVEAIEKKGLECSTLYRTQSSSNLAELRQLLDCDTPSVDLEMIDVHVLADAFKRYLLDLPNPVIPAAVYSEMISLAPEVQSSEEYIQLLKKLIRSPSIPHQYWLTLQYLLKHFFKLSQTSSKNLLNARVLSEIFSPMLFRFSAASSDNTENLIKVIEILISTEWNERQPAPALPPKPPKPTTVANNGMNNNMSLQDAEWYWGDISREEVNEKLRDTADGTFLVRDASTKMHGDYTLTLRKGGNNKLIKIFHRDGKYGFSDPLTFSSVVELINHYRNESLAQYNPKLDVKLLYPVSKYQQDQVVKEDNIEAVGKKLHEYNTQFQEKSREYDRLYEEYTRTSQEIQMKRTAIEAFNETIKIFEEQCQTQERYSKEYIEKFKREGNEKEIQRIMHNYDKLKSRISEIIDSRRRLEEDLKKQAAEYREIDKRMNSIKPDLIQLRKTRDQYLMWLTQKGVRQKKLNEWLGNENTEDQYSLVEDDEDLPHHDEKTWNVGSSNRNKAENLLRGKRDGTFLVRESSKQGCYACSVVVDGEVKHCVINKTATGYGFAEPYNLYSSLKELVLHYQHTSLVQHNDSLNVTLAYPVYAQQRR

[7] = test system: 81 GPCR receptors, 8 ion channels and 5 transporters; assay: General selectivity panel (Cerep); type: binding; details: 10 μM
[8] = test system: 273 protein and lipid kinases; assay: General selectivity kinase panel (Millipore, Invitrogen and ProQinase); type: biochemical; details: 10 μM
[9] = test system: primary antibody responses to KLH; assay: Primary T cell dependent antibody response (TDAR) to KLH in mice; type: in vivo
Experimental: This assay allows a global assessment of the effect of a drug candidate on antigen presentation, helper T lymphocyte function and B lymphocyte dependent antibody production.
In both cases, the administration of the test compound started on the day of sensitization (day +1, KLH 2 mg/mouse, intravenously). […] A possible reason for this discrepancy is that the lymphocyte count of the concurrent vehicle group of the latter study was abnormally lower than usual, which could mask a potential effect of the test compound on this parameter.

[10] = test system: secondary IgG antibody responses to KLH; assay: Secondary TDAR to KLH in mice; type: in vivo
Experimental: This assay included two immunizations with KLH separated 15 days apart (50 μg KLH/animal, intraperitoneally) and specific IgG anti-KLH levels were measured on day +11 after the second immunization. Administration of test compound (0.3 and 3 mg/kg) started on the day of second immunization (day +1) and then once daily for the next 9 days.

[11] = test system: Anti-Dsg3 and anti-dsDNA autoantibody production; assay: MRL/lpr spontaneous autoimmune disease model, autoantibody production; type: in vivo, MRL/Ipr mouse; details: for Inhibition (%) of Anti Dsg3 total IgG production (Normalized AUCw 12-19) versus Vehicle / Inhibition (%) of Anti dsDNA total IgG production (Normalized AUCw 12-19) versus Vehicle: LAS191954 3 mg/kg or prednisolone 10 mg/kg orally once a day for 6 weeks
Experimental: The primary endpoint of this study was assessment of autoantibody production, including pemphigus-specific anti-Dsg3 antibodies.
The prednisolone dose was selected based on previous reports and corresponds to a high CS dose in humans.
As autoantibodies develop progressively and may follow a different course in each animal, anti-dsDNA antibody levels were measured on week 12 and used to uniformly distribute animals to dosing groups. At week 13, daily treatments were initiated and continued for 6 weeks. Antibodies to dsDNA and Dsg3 were measured at weeks 12, 15, 17 and 19. Skin lesions were inspected visually throughout the study. Effects on other parameters such as proteinuria, as well as general hematological, serological, and histological signs were evaluated at study completion.

[12] = test system: autoantibody-mediated cutaneous lesions; assay: Immunization-induced mouse model of epidermolysis bullosa acquista (EBA); type: in vivo, B6.SJL-H2s mice; details: 6 week treatment; for body weight gain: LAS191954 3 mg/kg/day or methylprednisolone 20 mg/kg/day orally
Experimental: Induction of experimental EBA was performed as described in Iwata H, Bieber K, Tiburzy B et al., J Immunol. 2013; 191:2978-2988. Briefly, 6-10 week B6.SJL-H2s mice were immunized with an emulsion of a recombinant protein encompassing the vWFA2 binding domain of mouse type VII collagen (COL7) in adjuvant (Titermax). After immunization, mice were weekly evaluated for the presence and extend of clinical disease, measured as percentage of body surface affected by skin lesions (erythema, blisters, erosions and crusts).
Treatments were carried out over a 6-week period, and mice were evaluated for the extend of clinical disease (primary endpoint) weekly. Clinical manifestations were scored 0 to 5, corresponding to 0%, <1%, ≧1% to <5%, ≧5% to <10%, ≧10% to <20% of body surface area affected, respectively. Area under Curve (AUC) was calculated from the score at inclusion, 1, 2, 3, 4, 5 and 6 weeks after allocation to treatment. For better comparability between experiments, the affected body surface area at weeks 1-6 was related to that at inclusion (set at 1).
Body weight was monitored weekly during treatment.

PI3K p110γ = PI3K p110γ (Homo sapiens, UniProt P48736); details: recombinant human isoform, pre-incubation 30 min
PI3Kβ = PI3Kβ (Homo sapiens, UniProt P42338); details: HUVEC, S1P stimulus, phosphorylated AKT
CHO cells = details: highest tested concentration of 100 μM, 24 h
[13] = dexamethasone 0.1-10 mg/kg and LAS191954 0.1-10 mg/kg ranges tested, dose of value not stated
[14] = Week 12 (beginning of treatment)

Sequence of PI3Kβ (P42338 whole entry): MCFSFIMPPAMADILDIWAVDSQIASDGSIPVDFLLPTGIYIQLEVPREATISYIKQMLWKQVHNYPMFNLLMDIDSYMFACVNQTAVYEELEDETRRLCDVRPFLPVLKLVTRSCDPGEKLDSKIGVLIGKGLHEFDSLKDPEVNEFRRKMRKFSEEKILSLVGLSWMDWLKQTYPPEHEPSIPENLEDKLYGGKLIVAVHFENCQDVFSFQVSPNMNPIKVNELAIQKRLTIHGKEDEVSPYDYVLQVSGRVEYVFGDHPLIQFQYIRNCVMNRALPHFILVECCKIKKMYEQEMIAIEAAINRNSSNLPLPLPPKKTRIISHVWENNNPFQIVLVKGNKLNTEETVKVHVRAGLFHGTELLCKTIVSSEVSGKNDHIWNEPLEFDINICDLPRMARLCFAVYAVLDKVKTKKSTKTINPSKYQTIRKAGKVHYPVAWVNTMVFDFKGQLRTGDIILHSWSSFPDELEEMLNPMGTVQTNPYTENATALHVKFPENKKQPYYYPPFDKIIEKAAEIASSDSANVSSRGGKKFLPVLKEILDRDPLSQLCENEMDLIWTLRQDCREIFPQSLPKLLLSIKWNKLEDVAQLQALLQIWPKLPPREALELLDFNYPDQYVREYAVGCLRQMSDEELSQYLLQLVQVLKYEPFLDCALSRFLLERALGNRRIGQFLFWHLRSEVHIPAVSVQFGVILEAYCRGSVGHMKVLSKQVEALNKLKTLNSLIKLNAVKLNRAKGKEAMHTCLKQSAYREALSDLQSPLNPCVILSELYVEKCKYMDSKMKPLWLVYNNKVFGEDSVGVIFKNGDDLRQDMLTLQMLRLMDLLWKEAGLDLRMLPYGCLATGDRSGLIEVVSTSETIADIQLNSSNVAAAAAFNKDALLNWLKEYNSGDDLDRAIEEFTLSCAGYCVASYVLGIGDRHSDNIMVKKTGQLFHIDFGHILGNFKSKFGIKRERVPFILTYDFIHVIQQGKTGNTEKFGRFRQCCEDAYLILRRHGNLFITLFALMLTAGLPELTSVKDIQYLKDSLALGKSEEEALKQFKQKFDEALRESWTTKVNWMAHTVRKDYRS
Sequence of PI3Kβ (P27986 whole entry partner): as the sequence (P27986 whole entry partner) above
Sequence of PI3K p110γ (P48736 whole entry, canonical isoform): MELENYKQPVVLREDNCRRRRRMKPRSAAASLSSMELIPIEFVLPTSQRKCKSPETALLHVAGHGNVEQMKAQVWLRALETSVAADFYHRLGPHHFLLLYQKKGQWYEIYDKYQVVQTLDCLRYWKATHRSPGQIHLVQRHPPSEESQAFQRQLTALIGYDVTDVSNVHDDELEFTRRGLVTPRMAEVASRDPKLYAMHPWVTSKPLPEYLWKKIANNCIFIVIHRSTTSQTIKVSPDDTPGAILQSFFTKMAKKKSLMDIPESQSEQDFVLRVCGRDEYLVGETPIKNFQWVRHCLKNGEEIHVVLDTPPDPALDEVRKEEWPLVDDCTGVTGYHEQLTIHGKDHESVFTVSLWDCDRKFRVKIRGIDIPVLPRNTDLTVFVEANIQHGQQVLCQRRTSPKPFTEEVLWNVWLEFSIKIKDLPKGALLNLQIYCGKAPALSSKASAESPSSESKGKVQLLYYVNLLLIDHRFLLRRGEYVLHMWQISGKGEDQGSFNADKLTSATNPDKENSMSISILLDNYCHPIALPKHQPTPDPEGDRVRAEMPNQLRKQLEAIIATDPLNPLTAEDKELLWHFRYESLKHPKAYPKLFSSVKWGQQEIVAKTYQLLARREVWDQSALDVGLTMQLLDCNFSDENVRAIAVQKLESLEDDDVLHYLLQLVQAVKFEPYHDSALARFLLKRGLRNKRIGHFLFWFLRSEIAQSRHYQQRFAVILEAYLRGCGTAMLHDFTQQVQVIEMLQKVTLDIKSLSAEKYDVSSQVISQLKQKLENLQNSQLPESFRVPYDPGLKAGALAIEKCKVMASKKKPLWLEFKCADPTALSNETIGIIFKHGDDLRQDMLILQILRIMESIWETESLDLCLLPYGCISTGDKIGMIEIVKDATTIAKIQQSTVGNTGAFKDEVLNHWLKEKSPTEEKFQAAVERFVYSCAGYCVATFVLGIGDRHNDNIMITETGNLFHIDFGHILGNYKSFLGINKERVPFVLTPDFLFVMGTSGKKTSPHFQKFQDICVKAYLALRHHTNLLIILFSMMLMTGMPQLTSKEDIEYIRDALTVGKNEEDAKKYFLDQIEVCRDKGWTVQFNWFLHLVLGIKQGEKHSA

Question: `C[C@@H]1C[C@H]2[C@@H]3CCC4=CC(=O)C=C[C@]4(C)[C@@]3(F)[C@@H](O)C[C@]2(C)[C@@]1(O)C(=O)CO` [Dexamethasone, dexamethasone, reference compound] was tested. Which “reduction in IL2 production versus vehicle-treated con A-induced rats” value [1] did it give?
Answer: only = 42%

Question: And the “reduction in IL2 production versus vehicle-treated con A-induced rats” value ([1]; listed as dexamethasone)?
Answer: 42%

Question: And the “plasma levels alone versus in combination” value [1]?
Answer: same levels

Question: And the “reduction in eosinophils in BALF” value [2, 13]?
Answer: 58%

Question: What about the “reduction in lymphocytes in BALF” value [2, 13] of the same compound?
Answer: 64%

Question: What about the “reduction in neutrophils in BALF” value [2, 13] of the same compound?
Answer: only = 53%,

Question: And the “reduction in neutrophils in BALF” value (neutrophils in BALF)?
Answer: only = 11%

Question: How did the IC50 (PI3Kδ [3]) turn out when `C[C@H](Nc1ncnc(N)c1C#N)c1nn2ccc(C#N)c2c(=O)n1-c1ccccc1` [LAS191954, (S)-2-(1-(6-amino-5-cyanopyrimidin-4-ylamino)ethyl)-4-oxo-3-phenyl-3,4-dihydropyrrolo[1,2-f][1,2,4]triazine-5-carbonitrile] was run?
Answer: 0.0078 µM

Question: What about the IC50 (PI3Kδ [4]) of the same compound?
Answer: 0.0046 µM

Question: And the IC50 (PI3Kδ [5]; Anti-IgD)?
Answer: 0.047 µM

Question: What about the IC50 (PI3Kδ [5]; Anti-IgM) of the same compound?
Answer: 0.034 µM

Question: What about the IC50 (PI3Kδ [6]) of the same compound?
Answer: 0.011 µM

Question: What about the “inhibition at single concentration” value [7] of the same compound?
Answer: No inhibition

Question: What about the “inhibition at single concentration” value [8] of the same compound?
Answer: No inhibition

Question: What about the “plasma levels alone versus in combination” value [1] of the same compound?
Answer: same levels

Question: And the ID50 ([1]; single administration, rats)?
Answer: 0.13 mg/kg

Question: What about the ID50 ([9]; primary IgG anti-KLH, day +15, 14-day dosing) of the same compound?
Answer: 0.17 mg/kg

Question: What about the lymphocyte count ([9]; primary IgG study, 14-day dosing) of the same compound?
Answer: no apparent effect

Question: What about the ID50 ([9]; primary IgM anti-KLH, day +5, repeated daily administration) of the same compound?
Answer: 0.12 mg/kg

Question: And the WBC counts ([9]; primary IgM study, 4 days daily treatment)?
Answer: lower WBC counts

Question: What about the “general health status of the animals” value ([9]; primary TDAR, 0.03-10 mg/kg daily) of the same compound?
Answer: without apparent effects

Question: What about the lymphocyte counts ([10]; 0.3 and 3 mg/kg once daily) of the same compound?
Answer: reduced lymphocyte counts

Question: And the ID50 ([10]; secondary IgG anti-KLH, day +11 after second immunization, repeated administration)?
Answer: < 0.3 mg/kg

Question: And the ID50 ([11]; Anti-Dsg3 and anti-dsDNA autoantibody production, repeated administration)?
Answer: <3 mg/kg

Question: And the “Absolute Anti-Dsg3 IgG levels (Mean ± SEM)” value [11, 14]?
Answer: 687 ± 252 U/ml

Question: And the “Absolute Anti-dsDNA IgG levels (Mean ± SEM)” value [11, 14]?
Answer: 370.152 ± 52.401 U/ml

Question: What about the “Absolute Anti-Dsg3 IgG levels (Mean ± SEM)” value ([11]; Week 19 (end of treatment)) of the same compound?
Answer: 450 ± 201 U/ml

Question: What about the “Absolute Anti-dsDNA IgG levels (Mean ± SEM)” value ([11]; Week 19 (end of treatment)) of the same compound?
Answer: 333.806 ± 106.959 U/ml

Question: What about the “mean decrease in anti-Dsg3 antibody levels below those at the beginning of treatment” value ([11]; week 19 versus week 12, FIG. 3) of the same compound?
Answer: 40%

Question: And the “reduction of anti-dsDNA antibody titers at the end of treatment” value ([11]; week 19 versus week 12, FIG. 3)?
Answer: 10%

Question: What about the “effect on eosinophils in BALF (in words)” value ([2]; LAS191954 only) of the same compound?
Answer: only = Modest

Question: And the “effect on lymphocytes in BALF (in words)” value ([2]; LAS191954 only)?
Answer: only = Modest

Question: And the “effect on neutrophils in BALF (in words)” value ([2]; LAS191954 only)?
Answer: increase in

Question: And the “reduction in neutrophils in BALF” value (neutrophils in BALF)?
Answer: only = 49%

Question: And the “overall disease activity, AUC of accumulative clinical score versus vehicle” value ([12]; LAS191954 3 mg/kg/day orally)?
Answer: significant reduction

Question: And the body weight gain [12]?
Answer: not altered

Question: What about the IC50 (PI3K p110γ) of the same compound?
Answer: 0.0717 µM

Question: What about the IC50 (PI3Kβ) of the same compound?
Answer: 0.295 µM

Question: What about the maximum cell death (CHO cells) of the same compound?
Answer: 27%

Question: With `C[C@]12C=CC(=O)C=C1CC[C@@H]1[C@@H]2[C@@H](O)C[C@@]2(C)[C@H]1CC[C@]2(O)C(=O)CO` [Prednisolone, prednisolone] as the compound, how does the “Inhibition (%) of Anti Dsg3 total IgG production (Normalized AUCw 12-19) versus Vehicle” value [11] read?
Answer: 49.5 ± 10%

Question: What about the “Inhibition (%) of Anti dsDNA total IgG production (Normalized AUCw 12-19) versus Vehicle” value [11] of the same compound?
Answer: 46.9 ± 10.9%

Question: What about the “Inhibition (%) of Anti Dsg3 total IgG production (Normalized AUCw 12-19) versus Vehicle” value ([11]; listed as prednisolone) of the same compound?
Answer: 49.5%

Question: And the “Inhibition (%) of Anti dsDNA total IgG production (Normalized AUCw 12-19) versus Vehicle” value ([11]; listed as prednisolone)?
Answer: 47%

Question: What about the “Absolute Anti-Dsg3 IgG levels (Mean ± SEM)” value [11, 14] of the same compound?
Answer: 501 ± 188 U/ml

Question: What about the “Absolute Anti-dsDNA IgG levels (Mean ± SEM)” value [11, 14] of the same compound?
Answer: 372.796 ± 56.638 U/ml

Question: And the “Absolute Anti-Dsg3 IgG levels (Mean ± SEM)” value ([11]; Week 19 (end of treatment))?
Answer: 242 ± 101 U/ml

Question: And the “Absolute Anti-dsDNA IgG levels (Mean ± SEM)” value ([11]; Week 19 (end of treatment))?
Answer: 933.755 ± 343.424 U/ml

Question: What about the “change of anti-dsDNA antibody levels at the end of treatment (in words)” value ([11]; week 19 versus week 12, FIG. 3) of the same compound?
Answer: doubled

Question: And the “mean decrease in anti-Dsg3 antibody levels below those at the beginning of treatment” value ([11]; week 19 versus week 12, FIG. 3)?
Answer: 20%

Question: For `C[C@H]1C[C@@H]2[C@H]([C@@H](O)C[C@@]3(C)[C@H]2CC[C@]3(O)C(=O)CO)[C@@]2(C)C=CC(=O)C=C12` [Methylprednisolone, reference compound], which body weight gain [12] is on record?
Answer: diminished the body weight gain
